Test results reported in patent US20090291975A1, “DUAL OPIOID PAIN THERAPY” (priority 2008, published 2009).

Test system: patients following bunionectomy surgery (acute pain)
Assay: Study 4: opioid adverse events at morphine equivalent doses, bunionectomy study
Conditions: morphine equivalent 12 mg, q6h, 48 hr

| SMILES | Adverse Events (%): Constipation - moderate/severe [%] | Adverse Events (%): Constipation mild/mod/severe [%] | Adverse Events (%): Dizziness - moderate/severe [%] | Adverse Events (%): Dizziness mild/mod/severe [%] | Adverse Events (%): Nausea - moderate/severe [%] | Adverse Events (%): Nausea mild/mod/severe [%] | Adverse Events (%): Vomiting - moderate/severe [%] | Adverse Events (%): Vomiting mild/mod/severe [%] | Dropouts (%) |
| --- | --- | --- | --- | --- | --- | --- | --- | --- | --- |
| CN1CC[C@]23c4c5ccc(O)c4O[C@H]2[C@@H](O)C=C[C@H]3[C@H]1C5 [Morphine, morphine] | 10 | 10 | 7 | 31 | 28 | 59 | 21 | 21 | 7 |
| COc1ccc2c3c1O[C@H]1C(=O)CC[C@@]4(O)[C@@H](C2)N(C)CC[C@]314 [Oxycodone, oxycodone] | 6 | 6 | 12 | 24 | 26 | 50 | 21 | 21 | 12 |
